Test results as given in ChEMBL document CHEMBL3414500, “New polycyclic dual inhibitors of the wild type and the V27A mutant M2 channel of the influenza A virus with unexpected binding mode” (Eur J Med Chem, 2015).

Molecular target: Matrix protein 2 (Influenza A virus (A/Udorn/307/1972(H3N2)), UniProt P0DOF8, V27A)

Q: Which IC50 does the source give for C1=C[C@H]2[C@H]3[C@H]4[C@@H]1[C@@H]1[C@H]2[C@@H]2[C@H]3[C@@H]3CNC[C@@H]3[C@H]4[C@H]12 here?
A: 185 µM

Q: C1C[C@H]2[C@H]3[C@H]4[C@@H]1[C@@H]1[C@H]2[C@@H]2[C@H]3[C@@H]3CNC[C@@H]3[C@H]4[C@H]12 was tested. Which IC50 did it give?
A: 17.2 µM

Q: How did the IC50 turn out when N=C(N)N1C[C@@H]2[C@H](C1)[C@@H]1[C@@H]3[C@H]4CC[C@H]5[C@@H]3[C@H]2[C@H]2[C@@H]5[C@@H]4[C@@H]12 was run?
A: 32.2 µM
